pIC50: −log10 of the molar value. Calls of active or inactive are those of the source. The calls are words filed in the database; no cut-off is given here.
Tests used:
K562 [1] = assay: Induction of mitochondrial membrane potential depolarization in human K562 cells assessed proportion of cells with collapsed MMP at 20 nM measured after 48 hrs by JC-1 staining based flow cytometry (reference value: 1.57%); assay type: functional
K562 [2] = assay: Induction of apoptosis in human K562 cells assessed as late apoptotic cells at 10 nM incubated for 48 hrs by AnnexinV-FITC/propidium iodide staining based flow cytometry analysis (reference value: 1.78%); assay type: functional
[3] = Toxicity in ICR mouse allografted with mouse H22 cells assessed as liver morphological changes at 30 mg/kg, iv administered daily for 21 days by hematoxylin and eosin staining based microscopic analysis; assay type: organism-based; conditions: in vivo, 504 h, dose 30 mg/kg/day, time 21 day
HUVEC [4] = assay: Inhibition of cell migration in HUVEC assessed as wound closure at 10 nM after 24 hrs by scratch wound healing assay (reference value: 76.3%); assay type: functional, Homo sapiens; design: scale not given: the % may be the effect or the level left
HUVEC [5] = assay: Anti-angiogenesis activity in HUVEC assessed as inhibition of capillary-like tube formation at 5 nM incubated for 6 hrs by Matrigel-based optical microscopy; assay type: functional, cell-based; conditions: Homo sapiens
H22 [6] = assay: Antiproliferative activity against mouse H22 cells assessed as inhibition of cell growth by MTT assay; assay type: functional, cell-based
K562 [7] = assay: Induction of cell cycle arrest in human K562 cells assessed as accumulation at G2/M phase at 5 nM incubated for 48 hrs by propidium iodide/RNase staining based flow cytometry (reference value: 7.7%); assay type: functional
K562 [8] = assay: Induction of mitochondrial membrane potential depolarization in human K562 cells assessed proportion of cells with intact MMP at 20 nM measured after 48 hrs by JC-1 staining based flow cytometry (reference value: 98.12%); assay type: functional
[9] = Toxicity in ICR mouse allografted with mouse H22 cells assessed as spleen morphological changes at 30 mg/kg, iv administered daily for 21 days by hematoxylin and eosin staining based microscopic analysis; assay type: organism-based; conditions: in vivo, 504 h, dose 30 mg/kg/day, time 21 day
[10] = Toxicity in ICR mouse allografted with mouse H22 cells assessed as kidney morphological changes at 30 mg/kg, iv administered daily for 21 days by hematoxylin and eosin staining based microscopic analysis; assay type: organism-based; conditions: in vivo, 504 h, dose 30 mg/kg/day, time 21 day
K562 [11] = assay: Induction of cell cycle arrest in human K562 cells assessed as accumulation at S phase at 5 nM incubated for 48 hrs by propidium iodide/RNase staining based flow cytometry (reference value: 53.48%); assay type: functional
HUVEC [12] = assay: Anti-angiogenesis activity in HUVEC assessed as inhibition of capillary-like tube formation at 20 nM incubated for 6 hrs by Matrigel-based optical microscopy; assay type: functional, cell-based; conditions: Homo sapiens
K562 [13] = assay: Induction of cell cycle arrest in human K562 cells assessed as accumulation at G2/M phase at 20 nM incubated for 48 hrs by propidium iodide/RNase staining based flow cytometry (reference value: 7.7%); assay type: functional
K562 [14] = assay: Induction of mitochondrial membrane potential depolarization in human K562 cells assessed proportion of cells with collapsed MMP at 10 nM measured after 48 hrs by JC-1 staining based flow cytometry (reference value: 1.57%); assay type: functional
HUVEC [15] = assay: Anti-angiogenesis activity in HUVEC assessed as inhibition of capillary-like tube formation incubated for 6 hrs by Matrigel-based optical microscopy; assay type: functional, cell-based; conditions: Homo sapiens, dose 5-20 nM
Sus scrofa [16] = organism: Sus scrofa; assay: Displacement of [3H]colchicine from porcine brain tubulin at 1 uM incubated for 2 hrs by TopCount scintillation counting method relative to control; assay type: tissue-based
HUVEC [17] = assay: Inhibition of cell migration in HUVEC assessed as decrease in wound closure after 24 hrs by scratch wound healing assay; assay type: functional, cell-based; conditions: Homo sapiens, dose 5-20 nM
[18] = Toxicity in ICR mouse allografted with mouse H22 cells assessed as lung morphological changes at 30 mg/kg, iv administered daily for 21 days by hematoxylin and eosin staining based microscopic analysis; assay type: organism-based; conditions: in vivo, 504 h, dose 30 mg/kg/day, time 21 day
H22 [19] = assay: Anti-tumor activity against mouse H22 cells allografted in ICR mice assessed as reduction in tumor weight at 15 mg/kg, iv administered daily for 21 days; assay type: functional; conditions: 504 h, time 21 day
K562 [20] = assay: Induction of apoptosis in human K562 cells assessed as late apoptotic cells at 5 nM incubated for 48 hrs by AnnexinV-FITC/propidium iodide staining based flow cytometry analysis (reference value: 1.78%); assay type: functional
K562 [21] = assay: Induction of cell cycle arrest in human K562 cells assessed as accumulation at S phase at 20 nM incubated for 48 hrs by propidium iodide/RNase staining based flow cytometry (reference value: 53.48%); assay type: functional
[22] = Toxicity in ICR mouse allografted with mouse H22 cells assessed as body weight loss at 30 mg/kg, iv administered daily for 21 days; assay type: organism-based; conditions: in vivo, 504 h, dose 30 mg/kg/day, time 21 day
HepG2 = assay: Antiproliferative against human HepG2 cells assessed as reduction in cell viability measured after 72 hrs by MTT assay; assay type: functional, cell-based; conditions: HepG2, 72 h
Sus scrofa [23] = organism: Sus scrofa; assay: Displacement of [3H]colchicine from porcine brain tubulin at 5 uM incubated for 2 hrs by TopCount scintillation counting method relative to control; assay type: tissue-based
K562 [24] = assay: Induction of cell cycle arrest in human K562 cells assessed as increase in accumulation at G2/M phase incubated for 48 hrs by propidium iodide/RNase staining based flow cytometry; assay type: functional; conditions: dose 5-20 nM
[25] = against A against n against t against i against p against r against o against l against i against f against e against r against a against t against i against v against e against a against c against t against i against v against i against t against y against a against g against a against i against n against s against t against h against u against m against a against n against H against C against T against - against 8 against c against e against l against l against s against a against s against s against e against s against s against e against d against a against s against r against e against d against u against c against t against i against o against n against i against n against c against e against l against l against v against i against a against b against i against l against i against t against y against m against e against a against s against u against r against e against d against a against f against t against e against r against 7 against 2 against h against r against s against b against y against M against T against T against a against s against s against a against y against; assay type: functional, tissue-based, Homo sapiens; conditions: hct-8
K562 [26] = assay: Induction of mitochondrial membrane potential depolarization in human K562 cells assessed proportion of cells with intact MMP at 5 nM measured after 48 hrs by JC-1 staining based flow cytometry (reference value: 98.12%); assay type: functional
[27] = Toxicity in ICR mouse allografted with mouse H22 cells assessed as heart morphological changes at 30 mg/kg, iv administered daily for 21 days by hematoxylin and eosin staining based microscopic analysis; assay type: organism-based; conditions: in vivo, 504 h, dose 30 mg/kg/day, time 21 day
[28] = against A against n against t against i against p against r against o against l against i against f against e against r against a against t against i against v against e against a against c against t against i against v against i against t against y against a against g against a against i against n against s against t against h against u against m against a against n against M against D against A against - against M against B against - against 2 against 3 against 1 against c against e against l against l against s against a against s against s against e against s against s against e against d against a against s against r against e against d against u against c against t against i against o against n against i against n against c against e against l against l against v against i against a against b against i against l against i against t against y against m against e against a against s against u against r against e against d against a against f against t against e against r against 7 against 2 against h against r against s against b against y against M against T against T against a against s against s against a against y against; assay type: functional, tissue-based, Homo sapiens; conditions: mda-mb-231
K562 [29] = assay: Induction of cell cycle arrest in human K562 cells assessed as accumulation at G1 phase at 20 nM incubated for 48 hrs by propidium iodide/RNase staining based flow cytometry (reference value: 38.83%); assay type: functional
K562 [30] = assay: Induction of cell cycle arrest in human K562 cells assessed as accumulation at S phase at 10 nM incubated for 48 hrs by propidium iodide/RNase staining based flow cytometry (reference value: 53.48%); assay type: functional

## C=C(c1cc(Cl)nc(NC)c1)c1ccc(OC)c(O)c1
K562 [1]
  Activity: 38.84%
K562 [2]
  Activity: 11.3%
[3]
  Activity: Non-Toxic
HUVEC [4]
  Activity: 55.3%
HUVEC [5]
  Activity: Active
H22 [6]
  pIC50: 7.77
K562 [7]
  Activity: 9.4%
K562 [8]
  Activity: 61.55%
[9]
  Activity: Non-Toxic
[10]
  Activity: Non-Toxic
K562 [11]
  Activity: 50.66%
HUVEC [12]
  Activity: Active
K562 [13]
  Activity: 15.28%
K562 [14]
  Activity: 20.05%
HUVEC [15]
  Activity: Dose-dependent effect
Sus scrofa [16]
  inhibition: 66.5%
HUVEC [17]
  inhibition: Dose-dependent effect
[18]
  Activity: Non-Toxic
H22 [19]
  inhibition in vivo at 15 mg/kg/day: 58.7%
K562 [20]
  Activity: 3.86%
K562 [21]
  Activity: 48.07%
[22]
  Activity: Non-Toxic
HepG2
  pIC50: 7.72
Sus scrofa [23]
  inhibition: 79.3%
K562 [24]
  Activity: Dose-dependent effect
[25]
  pIC50: 7.68
K562 [26]
  Activity: 86.4%
[27]
  Activity: Non-Toxic
[28]
  pIC50: 7.70
K562 [29]
  Activity: 36.65%
K562 [30]
  Activity: 50.01%

Source: ChEMBL document CHEMBL4765299 (Eur J Med Chem, 2020)
